How the values were obtained:
[1] = compared with verapamil; cited from earlier work
P rats = experiment: Alcohol and water intake in P rats, three doses of levemopamil (Example 6); assay type: in vivo
Protocol: Levemopamil and a vehicle were administered in eight P rats obtained from the Indiana Alcohol Research Center at the University of Indiana School of Medicine, as described in Example 5. After establishing a stable baseline for alcohol and water intake, Each animal was injected twice (9:15 and 16:00 hours) with either one of three doses of levemopamil (3.3, 10, and 20 mg/Kg) or an equal volume of the vehicle (a solution of 1 ml absolute ethanol and 4 ml distilled water. Water and alcohol intake were monitored. The amount of alcohol and water intake was recorded twice daily before each administration of vehicle or levemopamil and continued during the drug washout periods.

[2] = test system: alcohol preferring Wistar rats; experiment: Alcohol, water, total fluid and food intake in alcohol preferring (P) rats, single dose level (Example 5); assay type: in vivo
Protocol: Levemopamil was administered in eight selectively-bred adult male alcohol preferring Wistar rats (hereinafter "P") obtained from the Indiana Alcohol Research Center at the University of Indiana School of Medicine.
These lines of rats have been developed genetically through selected breeding by Lumeng et al., New strains of rats with alcohol preference and nonpreference. In: Thurman et al., Eds. Alcohol and Aldehyde Metabolizing Systems. Vol. 3. New York: Academic Press, 1977. pp. 537-544. The P rats prefer to drink at least 5g/Kg body weight/day of a 10% (v/v) ethanol solution in a free-choice situation with food and water available. These rats have been widely used as an animal model of alcoholism. See, Tabakoff et al., Biochemical Pharmacology of Alcohol. Meltzer, Ed. In: Psychopharmacology: The Third Generation of Progress. New York: Raven Press, 1978. pp.1521-1526.
The criteria for classification of P rats was that the average daily intake of ethanol (10%v/v) in P rats should be equal or greater than 5g/Kg body weight/day and the ethanol to water intake ratio should be equal or greater than 2:1.
After establishing a stable baseline for alcohol and water intake, Each animal was injected twice (9:30 and 16:30 hours) with a 10 mg/Kg dosage of levemopamil or an equal volume of the vehicle. Water, alcohol and food intake were monitored.

[3] = in vivo; cited from earlier work

CC(C)C(C#N)(CCCN(C)CCc1ccccc1)c1ccccc1 (centres unmarked) [levemopamil, 2-isopropyl-5-(methylphenethylamino)-2-phenylvaleronitrile]
cerebral availability [1]: significantly higher than that of the comparison compound verapamil | intake of ethanol (P rats; 10mg/Kg and 20 mg/Kg twice daily over one day, vs vehicle and base-line, Figure 5): significantly reduced | intake of water (P rats; 10mg/Kg and 20 mg/Kg twice daily over one day, vs vehicle and base-line, Figure 6): significantly increased | Alcohol intake during the drug washout periods (P rats; drug washout periods after dosing): returned to base-line levels | ethanol intake (P rats; low dose 3.3mg/Kg, injected twice, Figure 5): did not induce a significant change | water intake (P rats; low dose 3.3mg/Kg, injected twice, Figure 6): did not induce a significant change | alcohol intake or consumption ([2]; 10 mg/Kg injected twice (9:30 and 16:30 hours), vs baseline and vehicle, Figure 1): significantly attenuated | food intake ([2]; 10 mg/Kg injected twice, Figure 4): unaffected | water intake ([2]; 10 mg/Kg injected twice, vs vehicle and base-line, Figure 2): significantly increased | Total fluid intake ([2]; 10 mg/Kg injected twice, vs vehicle and base-line, Figure 3): decreased | passage of the blood/brain barrier by brain uptake index (BUI) [3]: more rapidly and in considerably larger amounts than does verapamil
